From patent publication US11325938B2, “CD73 inhibitors” (ORIC Pharmaceuticals, Inc., priority 2018, dated 2022)

What follows are compounds tested against CD73 (Homo sapiens (Human), UniProt P21589) (assay: Biochemical assay: inhibition of CD73 activity (AMP hydrolysis, Malachite Green readout)). Conditions: CD73 0.3208 nM, AMP 15 μM, 25 mM Tris-HCl pH 7.4, RT, absorbance 620 nm.
Outline: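 Phosphate from AMP hydrolysis (15 μM AMP, 10 min, RT) was detected by Malachite Green absorbance to give IC50s. Enzyme at 320 pM was first exposed 15 min to compounds, dosed from 100 μM in ½-log steps, in Tris pH 7.4 buffer with MgCl2, Brij-35 and BSA.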

Chain of CD73 (P21589 27-574): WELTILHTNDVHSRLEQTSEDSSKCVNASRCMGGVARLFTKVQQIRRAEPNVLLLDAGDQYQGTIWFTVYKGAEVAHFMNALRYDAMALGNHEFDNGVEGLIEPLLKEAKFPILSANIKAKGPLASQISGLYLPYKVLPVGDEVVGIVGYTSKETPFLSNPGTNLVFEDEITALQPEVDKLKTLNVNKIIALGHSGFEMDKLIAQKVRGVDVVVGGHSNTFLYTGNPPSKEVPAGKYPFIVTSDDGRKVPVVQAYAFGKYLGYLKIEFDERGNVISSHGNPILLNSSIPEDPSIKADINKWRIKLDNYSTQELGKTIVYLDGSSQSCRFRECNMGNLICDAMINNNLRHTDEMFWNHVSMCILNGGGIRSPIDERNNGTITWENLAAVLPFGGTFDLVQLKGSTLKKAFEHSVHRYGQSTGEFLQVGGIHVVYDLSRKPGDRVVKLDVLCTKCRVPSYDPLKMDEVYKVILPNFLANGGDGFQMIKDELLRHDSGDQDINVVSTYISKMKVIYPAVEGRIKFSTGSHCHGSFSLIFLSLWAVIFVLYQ

| Structure (SMILES) | IC50 |
| --- | --- |
| C[C@@H](O)COc1nc(NC2CCCC2)c2cnn([C@@H]3O[C@H](COC(CO)(CO)P(=O)(O)O)[C@@H](O)[C@H]3O)c2n1 (racemic) [Example 191, rac-(2-(((2R,3S,4R,5R)-5-(4-(cyclopentylamino)-6-((R)-2-hydroxypropoxy)-1H-pyrazolo[3,4-d]pyrimidin-1-yl)-3,4-dihydroxytetrahydrofuran-2-yl)methoxy)-1,3-dihydroxypropan-2-yl)phosphonic acid] | ≤ 100 nM |
| O=P(O)(O)C(OC[C@H]1O[C@@H](n2ncc3c(NC4CCCC4)nc(Cl)nc32)[C@H](O)[C@@H]1O)C(F)(F)F (stereo partly drawn) [Example 80, (1-(((2R,3S,4R,5R)-5-(6-chloro-4-(cyclopentylamino)-1H-pyrazolo[3,4-d]pyrimidin-1-yl)-3,4-dihydroxytetrahydrofuran-2-yl)methoxy)-2,2,2-trifluoroethyl)phosphonic acid] | 100 to 1000 nM |
| O=P(O)(O)C(CO)(Cc1nn[nH]n1)OC[C@H]1O[C@@H](n2ncc3c(NCC4CC4)nc(Cl)nc32)[C@H](O)[C@@H]1O (mixture of isomers) [Example 184, rac-(2-(((2R,3S,4R,5R)-5-(6-chloro-4-((cyclopropylmethyl)amino)-1H-pyrazolo[3,4-d]pyrimidin-1-yl)-3,4-dihydroxytetrahydrofuran-2-yl)methoxy)-1-hydroxy-3-(2H-tetrazol-5-yl)propan-2-yl)phosphonic acid] | ≤ 100 nM |
| O=P(O)(O)C(CO)(CO)OC[C@H]1O[C@H](n2ncc3c(NCc4ccc(Cl)cc4)nc(Cl)nc32)[C@H](O)[C@@H]1O (racemic) [Example 203, rac-(2-(((2R,3S,4R,5S)-5-(6-chloro-4-((4-chlorobenzyl)amino)-1H-pyrazolo[3,4-d]pyrimidin-1-yl)-3,4-dihydroxytetrahydrofuran-2-yl)methoxy)-1,3-dihydroxypropan-2-yl)phosphonic acid] | ≤ 100 nM |
| O=P(O)(O)C(CO)(CO)OC[C@H]1O[C@@H](n2ncc3c(N[C@@H]4CCc5ccccc54)nc(OCCO)nc32)[C@H](O)[C@@H]1O [Example 100, (2-(((2R,3S,4R,5R)-5-(4-(((R)-2,3-dihydro-1H-inden-1-yl)amino)-6-(2-hydroxyethoxy)-1H-pyrazolo[3,4-d]pyrimidin-1-yl)-3,4-dihydroxytetrahydrofuran-2-yl)methoxy)-1,3-dihydroxypropan-2-yl)phosphonic acid] | ≤ 100 nM |
| CC(CCO)(OC[C@H]1O[C@@H](n2ncc3c(NC4CCCC4)nc(Cl)nc32)[C@H](O)[C@@H]1O)P(=O)(O)O (stereo partly drawn) [Example 56, (2-(((2R,3S,4R,5R)-5-(6-Chloro-4-(cyclopentylamino)-1H-pyrazolo[3,4-d]pyrimidin-1-yl)-3,4-dihydroxytetrahydrofuran-2-yl)methoxy)-4-hydroxybutan-2-yl)phosphonic acid] | ≤ 100 nM |
| O=P(O)(O)C(CO)(CO)OC[C@H]1O[C@@H](n2ncc3c(NC4CCCC4)nc(Cl)nc32)[C@H](O)[C@@H]1O [Example 86, [1-[[(2R,3S,4R,5R)-5-[6-Chloro-4-(cyclopentylamino)pyrazolo[3,4-d]pyrimidin-1-yl]-3,4-dihydroxy-tetrahydrofuran-2-yl]methoxy]-2-hydroxy-1-(hydroxymethyl)ethyl]phosphonic acid] | ≤ 100 nM |
| CC(CO)(OC[C@H]1O[C@@H](n2ncc3c(N[C@H]4CC[C@@H]5CCC[C@@H]54)nc(Cl)nc32)[C@H](O)[C@@H]1O)P(=O)(O)O (stereo partly drawn) [Example 141, (2-(((2R,3S,4R,5R)-5-(6-chloro-4-(((1S,3aS,6aS)-octahydropentalen-1-yl)amino)-1H-pyrazolo[3,4-d]pyrimidin-1-yl)-3,4-dihydroxytetrahydrofuran-2-yl)methoxy)-1-hydroxypropan-2-yl)phosphonic acid] | ≤ 100 nM |
| N#CC(OC[C@H]1O[C@@H](n2ncc3c(NC4CCCC4)nc(Cl)nc32)[C@H](O)[C@@H]1O)P(=O)(O)O (stereo partly drawn) [Example 2, ((((2R,3S,4R,5R)-5-(6-Chloro-4-(cyclopentylamino)-1H-pyrazolo[3,4-d]pyrimidin-1-yl)-3,4-dihydroxytetrahydrofuran-2-yl)methoxy)(cyano)methyl)phosphonic acid] | 100 to 1000 nM |
| CCOCC(C)(OC[C@H]1O[C@@H](n2ncc3c(NC4CCCC4)nc(Cl)nc32)[C@H](O)[C@@H]1O)P(=O)(O)O (stereo partly drawn) [Example 156, (2-(((2R,3S,4R,5R)-5-(6-chloro-4-(cyclopentylamino)-1H-pyrazolo[3,4-d]pyrimidin-1-yl)-3,4-dihydroxytetrahydrofuran-2-yl)methoxy)-1-ethoxypropan-2-yl)phosphonic acid] | ≤ 100 nM |
| COC[C@@](C)(OC[C@H]1O[C@@H](n2ncc3c(NC4CCCC4)nc(Cl)nc32)[C@H](O)[C@@H]1O)P(=O)(O)O [Example 65, ((S)-2-(((2R,3S,4R,5R)-5-(6-chloro-4-(cyclopentylamino)-1H-pyrazolo[3,4-d]pyrimidin-1-yl)-3,4-dihydroxytetrahydrofuran-2-yl)methoxy)-1-methoxypropan-2-yl)phosphonic acid] | ≤ 100 nM |
| COP(=O)(CP(=O)(O)O)OC[C@H]1O[C@@H](n2nnc3c(NC4CCCC4)cc(Cl)nc32)[C@H](O)[C@@H]1O (stereo partly drawn) [Example 54, (((((2R,3S,4R,5R)-5-(5-chloro-7-(cyclopentylamino)-3H-[1,2,3]triazolo[4,5-b]pyridin-3-yl)-3,4-dihydroxytetrahydrofuran-2-yl)methoxy)(methoxy)phosphoryl)methyl)phosphonic acid] | ≤ 100 nM |
| C[C@@](CO)(OC[C@H]1O[C@@H](n2ncc3c(NC4CC5(CCC5)C4)nc(Cl)nc32)[C@H](O)[C@@H]1O)P(=O)(O)O [Example 126, ((R)-2-(((2R,3S,4R,5R)-5-(6-chloro-4-(spiro[3.3]heptan-2-ylamino)-1H-pyrazolo[3,4-d]pyrimidin-1-yl)-3,4-dihydroxytetrahydrofuran-2-yl)methoxy)-1-hydroxypropan-2-yl)phosphonic acid] | ≤ 100 nM |
| O=c1[nH]c(CC(CO)(OC[C@H]2O[C@@H](n3ncc4c(NC5CCCC5)nc(Cl)nc43)[C@H](O)[C@@H]2O)P(=O)(O)O)no1 (mixture of isomers) [Example 206, rac-(2-(((2R,3S,4R,5R)-5-(6-chloro-4-(cyclopentylamino)-1H-pyrazolo[3,4-d]pyrimidin-1-yl)-3,4-dihydroxytetrahydrofuran-2-yl)methoxy)-1-hydroxy-3-(5-oxo-4,5-dihydro-1,2,4-oxadiazol-3-yl)propan-2-yl)phosphonic acid] | ≤ 100 nM |
| CC(CO)(OC[C@H]1O[C@@H](n2ncc3c(NC4CCCC4)nc(Cl)nc32)[C@H](O)[C@@H]1O)P(=O)(O)O (stereo partly drawn) [Example 15, (2-(((2R,3S,4R,5R)-5-(6-Chloro-4-(cyclopentylamino)-1H-pyrazolo[3,4-d]pyrimidin-1-yl)-3,4-dihydroxytetrahydrofuran-2-yl)methoxy)-1-hydroxypropan-2-yl)phosphonic acid] | ≤ 100 nM |
| COCC(COC)(OC[C@H]1O[C@@H](n2ncc3c(NC4CCCC4)nc(Cl)nc32)[C@H](O)[C@@H]1O)P(=O)(O)O [Example 87, [1-[[(2R,3S,4R,5R)-5-[6-Chloro-4-(cyclopentylamino)pyrazolo[3,4-d]pyrimidin-1-yl]-3,4-dihydroxy-tetrahydrofuran-2-yl]methoxy]-2-methoxy-1-(methoxymethyl)ethyl]phosphonic acid] | ≤ 100 nM |
